Results: patent US20070049564A1 (Wyeth, priority 2005, published 2007)
Like-named read-outs stand apart in the source and are kept apart here.

Columns and labels:
c. albicans GC 3066 = assay: MIC, broth microdilution
S. pyogenes GC 4563 = assay: MIC, broth microdilution; details: Streptococcus pyogenes
S. aureus GC 1079 = assay: MIC, broth microdilution; details: Staphylococcus aureus
E. faecium GC 2243 = assay: MIC, broth microdilution; details: Enterococcus faecium
E. coli GC 2233 = assay: MIC, broth microdilution; details: Escherichia coli
E. faecalis GC 2265 = assay: MIC, broth microdilution; details: Enterococcus faecalis
E. coli GC 2271 = assay: MIC, broth microdilution; details: Escherichia coli
S. typhimurium GC 2172 = assay: MIC, broth microdilution; details: Salmonella enterica, TYPHIMURIUM
E. faecalis GC 4555 = assay: MIC, broth microdilution; details: Enterococcus faecalis
E. coli GC 1073 = assay: MIC, broth microdilution; details: Escherichia coli
Staph. = assay: Range of MIC for Staph. strains, including MRSA; details: Staphylococcus aureus
E. coli GC 2235 = assay: MIC, broth microdilution; details: Escherichia coli
S. aureus GC 6335 = assay: MIC, broth microdilution; details: Staphylococcus aureus
S. agalactiae GC 4564 = assay: MIC, broth microdilution; details: Streptococcus agalactiae
E. faecium GC 4556 = assay: MIC, broth microdilution; details: Enterococcus faecium
E. coli GC 2270 = assay: MIC, broth microdilution; details: Escherichia coli
E. coli GC 2236 = assay: MIC, broth microdilution; details: Escherichia coli
E. coli = assay: Range of MIC for E. coli strains; details: Escherichia coli
E. coli GC 3226 = assay: MIC, broth microdilution; details: Escherichia coli
S. aureus GC 6469 = assay: MIC, broth microdilution; details: Staphylococcus aureus

Measured: MIC

CN(C)c1cc(NC(=O)CN(C(=O)OCOC(=O)CCC2CCCCC2)C(C)(C)C)c(O)c2c1C[C@H]1C[C@H]3[C@H](N(C)C)C(O)=C(C(N)=O)C(=O)[C@@]3(O)C(O)=C1C2=O [Example 63, ({[(2-{[(5aR,6aS,7S,10aS)-9-(aminocarbonyl)-4,7-bis(dimethylamino)-1,8,10a,11-tetrahydroxy-10,12-dioxo-5,5a,6,6a,7,10,10a,12-octahydrotetracen-2-yl]amino}-2-oxoethyl)(tert-butyl)amino]carbonyl}oxy)methyl 3-cyclohexylpropanoate]
1 to 4 µg/mL: Staph.; read-out: Minimum inhibitory concentration (MIC), Staph (Human Serum)
>64 UG/ML: c. albicans GC 3066; pre-incubation in human serum | c. albicans GC 3066; pre-incubation in mouse serum
0.5 to 2 µg/mL: Staph.; MRSA, read-out: Range of MIC, Staph (Mouse Serum) | E. coli; 20 h, read-out: Range of MIC, E. coli (Mouse Serum)
64 µg/mL: E. coli GC 2270; GC2270, pre-incubation in human serum
1 µg/mL: S. aureus GC 1079; GC1079, pre-incubation in mouse serum | E. coli GC 2233; GC2233, pre-incubation in mouse serum | E. faecalis GC 2265; GC2265, pre-incubation in mouse serum | E. faecalis GC 4555; GC4555, pre-incubation in mouse serum | S. aureus GC 6335; GC6335, pre-incubation in human serum | S. aureus GC 6335; GC6335, pre-incubation in mouse serum | E. faecium GC 4556; GC4556, pre-incubation in mouse serum | E. coli GC 2236; GC2236, pre-incubation in mouse serum | E. coli GC 3226; GC3226, pre-incubation in mouse serum | S. aureus GC 6469; GC6469, pre-incubation in mouse serum
16 µg/mL: S. aureus GC 6469; GC6469, pre-incubation in water
0.5 µg/mL: E. faecium GC 2243; GC2243, pre-incubation in water | E. coli GC 2271; GC2271, pre-incubation in mouse serum | E. coli GC 2235; GC2235, pre-incubation in mouse serum | E. faecium GC 4556; GC4556, pre-incubation in water | E. coli GC 2270; GC2270, pre-incubation in mouse serum
2 µg/mL: S. aureus GC 1079; GC1079, pre-incubation in human serum | E. faecalis GC 2265; GC2265, pre-incubation in human serum | S. typhimurium GC 2172; pre-incubation in mouse serum | E. faecalis GC 4555; GC4555, pre-incubation in human serum | E. coli GC 1073; GC1073, pre-incubation in mouse serum | S. aureus GC 6469; GC6469, pre-incubation in human serum
> 64 µg/mL: c. albicans GC 3066; Candida albicans, GC3066 | E. coli GC 2233; GC2233, pre-incubation in human serum | E. coli GC 2233; GC2233, pre-incubation in water | E. coli GC 2271; GC2271, pre-incubation in human serum | E. coli GC 2271; GC2271, pre-incubation in water | S. typhimurium GC 2172; pre-incubation in human serum | S. typhimurium GC 2172; pre-incubation in water | E. coli GC 1073; GC1073, pre-incubation in human serum | E. coli GC 1073; GC1073, pre-incubation in water | E. coli GC 2235; GC2235, pre-incubation in human serum | E. coli GC 2235; GC2235, pre-incubation in water | E. coli GC 2270; GC2270, pre-incubation in water | E. coli GC 2236; GC2236, pre-incubation in human serum | E. coli GC 2236; GC2236, pre-incubation in water | E. coli; read-out: Minimum inhibitory concentration (MIC), E. coli (water) | E. coli; read-out: Range of MIC, E. coli (Water) | E. coli GC 3226; GC3226, pre-incubation in human serum | E. coli GC 3226; GC3226, pre-incubation in water
0.12 µg/mL: S. pyogenes GC 4563; GC4563, pre-incubation in human serum | S. pyogenes GC 4563; GC4563, pre-incubation in mouse serum | S. pyogenes GC 4563; GC4563, pre-incubation in water
0.25 µg/mL: E. faecium GC 2243; GC2243, pre-incubation in human serum | E. faecium GC 2243; GC2243, pre-incubation in mouse serum | S. agalactiae GC 4564; GC4564, pre-incubation in human serum | S. agalactiae GC 4564; GC4564, pre-incubation in mouse serum | S. agalactiae GC 4564; GC4564, pre-incubation in water
4 µg/mL: E. faecalis GC 4555; GC4555, pre-incubation in water | S. aureus GC 6335; GC6335, pre-incubation in water | E. faecium GC 4556; GC4556, pre-incubation in human serum
2 to 16 µg/mL: Staph.; MRSA, read-out: Range of MIC, Staph (Water) | Staph.; read-out: Minimum inhibitory concentration (MIC), Staph (Water)
8 µg/mL: S. aureus GC 1079; GC1079, pre-incubation in water | E. faecalis GC 2265; GC2265, pre-incubation in water
